Legend:
Format in all cases: cell-based
[1] = tested on: hPGDH-transfected colon adenocarcinoma LS174T cells; experiment: Growth of hPGDH-transfected LS174T colon adenocarcinoma cells (cell counting); details: 100 nM lubiprostone, fresh every 24 hr, cells counted at 0-96 hr, FIG. 1B
Experimental: (§1) Approximately half of colon cancers have a low level of NAD^+-linked 15-hydroxyprostaglandin dehydrogenase (NAD^+-15-PGDH). It was tested whether lubiprostone affected the growth of LS174T colon […] cells, which are known to have a low level of 15-PGDH. LS174T cells (ATCC #CL-188) were grown in Eagle's Minimum Essential Medium (ATCC #30-2003) containing 10% Fetal Bovine Serum (ATCC #30-2020) at 37° C. Human PGDH (hPGDH) was expressed in LS174T cells using pCMV6-Entry Vector. Both the human cDNA clone (#RC204160) and the Precision shuttle vector (#PS100001) were from OriGene Technologies, Rockville, Md. LS174T cells were transfected with hPGDH cDNA using Lipofectamine and selected using G418 (200 μg/ml). LS174T cells±hPGDH (+hPGDH or + vector alone, mock) were grown in 35 mm petri dishes (0.5×10^4 cells/dish) in triplicate. Confluent non-transfected cells were plated in 6 well dishes (1×10^4 cells/well) in triplicate. Cultures were grown to 40% confluence and were then treated with either 0.1% EtOH-0.01% DMSO or 100 nM lubiprostone. Media were changed and fresh EtOH-DMSO or lubiprostone was added every 24 hr. Cell growth was monitored by directly counting the cells in a randomly chosen field using a cell cytometer at 0, 24, 48, 72 and 96 hr.

[2] = tested on: Mock-transfected colon adenocarcinoma LS174T cells; experiment: Growth of mock-transfected LS174T colon adenocarcinoma cells (cell counting); details: 100 nM lubiprostone, fresh every 24 hr; cells counted at 0-96 hr; vector-alone (mock) LS174T cells; FIG. 1C
Experimental: as §1

[3] = tested on: Non-transfected colon adenocarcinoma LS174T cells; experiment: Growth of non-transfected LS174T colon adenocarcinoma cells (cell counting); details: 100 nM lubiprostone, fresh every 24 hr; cells counted at 0, 24, 48, 72 and 96 hr; non-transfected cells (low 15-PGDH); FIG. 1A
Experimental: as §1

CCCCC(F)(F)[C@@]1(O)CC[C@H]2[C@@H](CC(=O)[C@@H]2CCCCCCC(=O)O)O1 [lubiprostone, (−)-7-[(2R,4aR,5R,7aR)-2-(1,1-difluoropentyl)-2-hydroxy-6-oxooctahydrocyclopenta[b]pyran-5-yl]heptanoic acid]
lubiprostone inhibition of cell growth after transfection with 15-OH PGDH [1]: prevented lubiprostone inhibition of cell growth | effect of mock transfection on lubiprostone inhibition of cell growth [2]: Mock transfection had no effect | LS174T cell growth [3]: slowed or stopped
